Measured values published in patent US4233303A, “Xanthine derivatives” (priority 1977, dated 1980).
“Also recorded” adds a separate entry of the source. Like-named read-outs stand apart in the source and are kept apart here.

How the values were obtained:
[1] = tested on: actively sensitized rat (anaphylactic bronchospasm); assay: Active lung anaphylaxis in the rat (increase in intratracheal pressure after ovalbumin); format: in vivo, Sprague Dawley (printed "Spargue Dawley"); conditions: for Increase in intratracheal pressure (+ΔP): 1 min before ovalbumin, mean ± S.E.M.; for ED50: Rattus norvegicus, iv; for doses needed for protective effect / protective effect against anaphylactic bronchospasm (words, conclusion): actively sensitized rat; for protective effect against anaphylactic bronchospasm (words, conclusion): theophylline 0.010-2.5 mg/kg, disodiumcromoglicate 0.1-5.0 mg/kg; for concentrations showing inhibition of the anaphylactic bronchospasm / effect on the increase of the intratracheal pressure / maximum inhibition of the anaphylactic bronchospasm: 1 minute before ovalbumin
Description: The antianaphylactic effect was tested on actively sensitized laboratory animals.
The active sensitization of the animals was achieved by injecting ovalbumin, a protein. This administration makes the animals hypersensitive to subsequent challenge of ovalbumin with bronchoconstriction as a consequence. The antianaphylactic effect of the test compounds was tested in vivo by exposing the actively sensitized animals to ovalbumin and measuring the protective effect of test substance on the intratracheal pressure.
Rats, Spargue Dawley, 250 g, were sensibilized by 1.0 mg ovalbumin (Sigma) and 200 mg Al(OH)3 gel suspended in 1.0 ml saline. This suspension was administered subcutaneously at 2 sites (0.5 ml/site) on the abdominal side. This procedure was done with the animals lightly anesthetized by Mebumal. 18-26 days later the animals were used in the provocation experiments
The animal was anesthetized by i.p. injection of Mebumal, 50 mg/kg i.p. The trachea was cannulated and the animals was ventilated by a pump (Braun). The frequency of respiration was about 80 beats/min. The intratracheal pressure was measured by a Statham pressure transducer (P23AC). The normal pressure variations were 0- cm H2 O.
To inhibit spontaneous respiration there was need for Curare 0.8 mg/kg i.v. Alongside with the respiratory measurements the heart rate and arterial blood pressure was measured by a Statham pressure transducer connected with a. carotis. The blood pressure, pulse rate and intratracheal pressure were registered by means of a Grass polygraph.
Bronochoconstriction was induced by 5HT, 4-5 injections in v. jugularis of a standard dose. After that a single dose of ovalbumin, 5 mg, was administered. Test compound was administered 1 min before the challenging dose of ovalbumin. Because of desensitization towards the antigen (ovalbumin) this could only be administered once in each animal.
Calculation of anaphylactic bronchoconstriction
The maximum increase of the intratracheal pressure caused by ovalbumin was measured and this was expressed as the percentage increase of the intratracheal pressure. Comparisons were made between a group of control animals not treated with test compound and groups of animals treated with different doses of test compound.
They were initially dissolved in 0.8 ml NaOH (0.5 M) and 9.2 ml saline. This stock solution of compound, 10 mg/ml, was diluted further with saline if necessary. […] The compound was dissolved in saline.

[2] = tested on: basophil leucocytes and isolated lung tissue; conditions: cited from earlier work
[3] = read-out: ED 50 values (50% protection against the anaphylactic bronchospasm), i.v., extrapolated
[4] = read-out: Extrapolated intravenous dose for 50% protection (ED 50), i.v., Table VIII

Cc1nc2c([nH]1)c(=O)n(C)c(=O)n2-c1ccccc1 [D 4026, 3,7-dihydro-1,8-dimethyl-3-phenyl-1H-purine-2,6-dione]
Increase in intratracheal pressure (+ΔP) ([1]; 0.010 mg/kg i.v.): 33 ± 6%
Increase in intratracheal pressure (+ΔP) ([1]; 0.100 mg/kg i.v.): 7 ± 2%
Increase in intratracheal pressure (+ΔP) ([1]; 0.500 mg/kg i.v.): 9 ± 5%
ED50 [1, 3]: < 0.1 mg/kg
ED50 [1, 4]: 0.016 mg/kg
doses needed for protective effect ([1]; i.v.): 0.01 to 1.0 mg/kg
protective effect against anaphylactic bronchospasm (words, conclusion) [1]: show protective effect
concentrations showing inhibition of the anaphylactic bronchospasm ([1]; i.v.): 0.01 to 0.10 mg/kg
effect on the increase of the intratracheal pressure ([1]; i.v.): diminished the increase of the intratracheal pressure
maximum inhibition of the anaphylactic bronchospasm ([1]; i.v.): about 87%

Cc1nc2c([nH]1)c(=O)n(C)c(=O)n2CC(C)O (stereo not drawn) [D 4086, 3,7-dihydro-1,8-dimethyl-3-(2-hydroxypropyl)-1H-purine-2,6-dione]
Increase in intratracheal pressure (+ΔP) ([1]; 0.100 mg/kg i.v.): 26 ± 6%
Increase in intratracheal pressure (+ΔP) ([1]; 0.250 mg/kg i.v.): 14 ± 3%
Increase in intratracheal pressure (+ΔP) ([1]; 0.500 mg/kg i.v.): 2 ± 1%
ED50 [1, 3]: 0.1 to 0.27 mg/kg
ED50 [1, 4]: 0.12 mg/kg
doses needed for protective effect ([1]; i.v.): 0.01 to 1.0 mg/kg
protective effect against anaphylactic bronchospasm (words, conclusion) [1]: show protective effect
effect on the increase of the intratracheal pressure ([1]; i.v.): diminished the increase of the intratracheal pressure

CCCn1c(=O)c2[nH]c(C)nc2n(CC(C)O)c1=O (stereo not drawn) [D 4122, 3,7-dihydro-3-(2-hydroxypropyl)-8-methyl-1-propyl-1H-purine-2,6-dione]
Increase in intratracheal pressure (+ΔP) ([1]; 0.010 mg/kg i.v.): 34 ± 4%
Increase in intratracheal pressure (+ΔP) ([1]; 0.100 mg/kg i.v.): 23 ± 5%
Increase in intratracheal pressure (+ΔP) ([1]; 1.00 mg/kg i.v.): 18 ± 4%
ED50 [1, 3]: < 0.1 mg/kg
ED50 [1, 4]: 0.01 mg/kg
doses needed for protective effect ([1]; i.v.): 0.01 to 1.0 mg/kg
protective effect against anaphylactic bronchospasm (words, conclusion) [1]: show protective effect
concentrations showing inhibition of the anaphylactic bronchospasm ([1]; i.v.): 0.01 to 1.00 mg/kg
effect on the increase of the intratracheal pressure ([1]; i.v.): diminished the increase of the intratracheal pressure
maximum inhibition of the anaphylactic bronchospasm ([1]; i.v.): 79%

Cc1nc2c([nH]1)c(=O)n(C)c(=O)n2C1CCCC1 [D 4136, 3-cyclopentyl-3,7-dihydro-1,8-dimethyl-1H-purine-2,6-dione]
Increase in intratracheal pressure (+ΔP) ([1]; 0.025 mg/kg i.v.): 36 ± 4%
Increase in intratracheal pressure (+ΔP) ([1]; 0.100 mg/kg i.v.): 55%
Increase in intratracheal pressure (+ΔP) ([1]; 1.00 mg/kg i.v.): 27 ± 4%
ED50 [1, 4]: 0.13 mg/kg
doses needed for protective effect ([1]; i.v.): 0.01 to 1.0 mg/kg
protective effect against anaphylactic bronchospasm (words, conclusion) [1]: show protective effect
effect on the increase of the intratracheal pressure ([1]; i.v.): diminished the increase of the intratracheal pressure

CCn1c(=O)c2[nH]c(C)nc2n(CC2CCCCC2)c1=O [D 4139, 3,7-dihydro-1-ethyl-8-methyl-3-cyclohexylmethyl-1H-purine-2,6-dione]
Increase in intratracheal pressure (+ΔP) ([1]; 0.010 mg/kg i.v.): 74 ± 22%
Increase in intratracheal pressure (+ΔP) ([1]; 0.05 mg/kg i.v.): 50 ± 26%
Increase in intratracheal pressure (+ΔP) ([1]; 0.100 mg/kg i.v.): 35 ± 9%
ED50 [1, 3]: < 0.1 mg/kg
ED50 [1, 4]: 0.04 mg/kg
doses needed for protective effect ([1]; i.v.): 0.01 to 1.0 mg/kg
protective effect against anaphylactic bronchospasm (words, conclusion) [1]: show protective effect
concentrations showing inhibition of the anaphylactic bronchospasm ([1]; i.v.): 0.01 to 0.10 mg/kg
effect on the increase of the intratracheal pressure ([1]; i.v.): diminished the increase of the intratracheal pressure
maximum inhibition of the anaphylactic bronchospasm ([1]; i.v.): 68%
ED 50 values (50% protection against the anaphylactic bronchospasm) ([1]; i.v., extrapolated): 0.10 to 0.27 mg/kg

O=C(O)c1cc(=O)c2c(OCC(O)COc3cccc4oc(C(=O)O)cc(=O)c34)cccc2o1 [disodiumcromoglicate, reference compound]
Increase in intratracheal pressure (+ΔP) ([1]; 0.100 mg/kg i.v.): 46 ± 7%
Increase in intratracheal pressure (+ΔP) ([1]; 1.00 mg/kg i.v.): 22 ± 8%
Increase in intratracheal pressure (+ΔP) ([1]; 5.0 mg/kg i.v.): 46 ± 6%
ED 50 result in words (dose-response shape) ([1]; i.v.): bell shaped curves which made it impossible to calculate ED 50 values; also recorded: bell-shaped curve

Cn1c(=O)c2[nH]cnc2n(C)c1=O [theophylline]
inhibition of the anaphylactic release of histamine [2]: capable of inhibiting the anaphylactic release of histamine
